# Tested on: 695427-040-R-J1-PDC complex spheroids, viability percent T/C
# Experiment: Anticancer human tumor 695427-040-R-J1-PDC patient-derived colon adenocarcinoma cell line growth inhibition [GQUAD]
# Conditions: for IC50: curve of first compound; for viability, T/C: stronger effect = lower value
# From the text: DNA G-quadruplex Stabilizer Agents in Combinations in Complex Spheroids
# A high-throughput screen of multi-cell type tumor spheroids was designed to identify active combinations of DNA G-quadruplex stabilizer agents and targeted small molecules. Complex spheroids include a stromal component modeled by human endothelial cells (HUVEC) and fibroblasts modeled by human mesenchymal stem cells (MSCs). The concentration ranges selected for each drug and investigational agent were based upon clinically achievable concentrations if the clinical Cmax of the agent was known.
# Compounds. The drugs and investigational agents: pidnarulex (CX-5461; NSC782164), APTO-253 (NSC789042), BRACO-19 (NSC847499), peposertib (NSC802822), ceralasertib (NSC780249), elimusertib (NSC800525), camonsertib (NSC841442), AZD-1390 (NSC803789), olaparib (NSC753686), talazoparib (NSC767125), ART-558 (NSC835418), sotorasib (NSC818433), MRTX-1133 (NSC836407), SN-38 (NSC673596), topotecan (NSC609699), etoposide (NSC141540), doxorubicin (NSC123127), gemcitabine (NSC613327), 5-fluorouracil (NSC19893), paclitaxel (NSC125973), vemurafenib (NSC761431), panobinostat (NSC761190), R-306465 (JNJ-16241199; NSC773264), adavosertib (NSC754352), TP-3654 (NSC805149), carboplatin (NSC241240), KSQ-4279 (NSC840948), and staurosporine (NSC755774) were obtained from the National Cancer Institute (NCI) Developmental Therapeutics Program Chemical Repository (34). The FDA-approved anticancer drug set is available from the NCI Developmental Therapeutics Program. […] The stock solutions were prepared in dimethyl sulfoxide (DMSO, Sigma-Aldrich, St. Louis, MO, cat. D2650) at 800-fold the tested concentration and stored at -70 degrees C prior to their use. All drugs and investigational agents were tested over a range starting from a high concentration at or near the clinical Cmax and decreasing in half-log increments. If the clinical Cmax for an agent had not been determined, the highest concentration tested was 10 microM.
# 2.3 Cell Culture. All cells were maintained in an incubator at 37 degrees C and 5% CO2 with 95% humidity. The PDC lines were cultured according to standard operating procedures established by the NCI PDMR. All PDCs were thawed and cultured in Matrigel-coated flasks prepared with a working solution of 1X Ham's F-12 nutrient mix, without supplementation (Invitrogen, cat. 11765054), 100 U/mL penicillin-streptomycin (Invitrogen, cat. 15140122), and 2.5% Matrigel (Corning Inc., cat. 354248) for the first three passages. The 857933-349-R-J2-PDC line was cultured in 6C/Colon 1B media, which includes advanced DMEM/F-12 (Thermo Fisher Scientific, cat. 12634028), 10 mM HEPES (Thermo Fisher Scientific, cat. 15630080), 1X GlutaMAX supplement (Thermo Fisher Scientific, cat. 35050061), 0.1 mg/mL primocin (InvivoGen, cat. ant-pm-2), 10% defined fetal bovine serum, heat inactivated (HyClone Laboratories Inc., cat. SH30070.03HI), 50% L-WRN conditioned media (ATCC, cat. CRL-3276), 1.25 mM N-Acetyl-L-cysteine (Sigma-Aldrich, cat. A9165), 10 mM nicotinamide (Sigma-Aldrich, cat. N0636), 1X B-27 supplement (Thermo Fisher Scientific, cat. 17504044), 1X N-2 supplement (Thermo Fisher Scientific, cat. 17502048), 10 microM Y-27632 dihydrochloride (Tocris Bioscience, cat. 1254), and 50 ng/mL human EGF recombinant protein (Thermo Fisher Scientific, cat. PHG0311). The 485176-168-R4-J1-PDC line was cultured in Panc media, which includes all 6C/Colon 1B media components plus 100 ng/mL human FGF-10 (Thermo Fisher Scientific, cat. 100-26), 500 nM SB-431542 (Selleckchem, cat. S1067), and gastrin (Tocris, cat. 3006).
# […]
# 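Note: spheroids exposed to compounds for seven days before readout.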
structure (smiles),measurement,setting,value
C=CC(=O)N1CCN(c2nc(=O)n(-c3c(C)ccnc3C(C)C)c3nc(-c4c(O)cccc4F)c(F)cc23)C(C)C1 (configuration not stated) + CN(C)c1ccc(Nc2c3ccc(NC(=O)CCN4CCCC4)cc3nc3cc(NC(=O)CCN4CCCC4)ccc23)cc1,IC50,second compound 0.0316 µM,> 10 µM
same,IC50,second compound 0.1 µM,> 10 µM
same,IC50,second compound 0.316 µM,> 10 µM
same,IC50,second compound 1 µM,> 10 µM
same,IC50,second compound 3.16 µM,> 10 µM
same,IC50,second compound 10 µM,> 10 µM
same,"viability, T/C","second compound 0.0316 µM, first compound 0.0316 µM",107%
same,"viability, T/C","second compound 0.0316 µM, first compound 0.1 µM",109%
same,"viability, T/C","second compound 0.0316 µM, first compound 0.316 µM",102%
same,"viability, T/C","second compound 0.0316 µM, first compound 1 µM",104%
same,"viability, T/C","second compound 0.0316 µM, first compound 3.16 µM",106%
same,"viability, T/C","second compound 0.0316 µM, first compound 10 µM",112%
same,"viability, T/C","second compound 0.1 µM, first compound 0.0316 µM",104%
same,"viability, T/C","second compound 0.1 µM, first compound 0.1 µM",95%
same,"viability, T/C","second compound 0.1 µM, first compound 0.316 µM",104%
same,"viability, T/C","second compound 0.1 µM, first compound 1 µM",94.6%
same,"viability, T/C","second compound 0.1 µM, first compound 3.16 µM",103%
same,"viability, T/C","second compound 0.1 µM, first compound 10 µM",110%
same,"viability, T/C","second compound 0.316 µM, first compound 0.0316 µM",113%
same,"viability, T/C","second compound 0.316 µM, first compound 0.1 µM",113%
same,"viability, T/C","second compound 0.316 µM, first compound 0.316 µM",107%
same,"viability, T/C","second compound 0.316 µM, first compound 1 µM",102%
same,"viability, T/C","second compound 0.316 µM, first compound 3.16 µM",106%
same,"viability, T/C","second compound 0.316 µM, first compound 10 µM",108%
same,"viability, T/C","second compound 1 µM, first compound 0.0316 µM",97.9%
same,"viability, T/C","second compound 1 µM, first compound 0.1 µM",106%
same,"viability, T/C","second compound 1 µM, first compound 0.316 µM",99.7%
same,"viability, T/C","second compound 1 µM, first compound 1 µM",107%
same,"viability, T/C","second compound 1 µM, first compound 3.16 µM",108%
same,"viability, T/C","second compound 1 µM, first compound 10 µM",107%
same,"viability, T/C","second compound 3.16 µM, first compound 0.0316 µM",107%
same,"viability, T/C","second compound 3.16 µM, first compound 0.1 µM",90.9%
same,"viability, T/C","second compound 3.16 µM, first compound 0.316 µM",100%
same,"viability, T/C","second compound 3.16 µM, first compound 1 µM",98.5%
same,"viability, T/C","second compound 3.16 µM, first compound 3.16 µM",101%
same,"viability, T/C","second compound 3.16 µM, first compound 10 µM",100%
same,"viability, T/C","second compound 10 µM, first compound 0.0316 µM",99.2%
same,"viability, T/C","second compound 10 µM, first compound 0.1 µM",89.7%
same,"viability, T/C","second compound 10 µM, first compound 0.316 µM",89.7%
same,"viability, T/C","second compound 10 µM, first compound 1 µM",92%
same,"viability, T/C","second compound 10 µM, first compound 3.16 µM",99.1%
same,"viability, T/C","second compound 10 µM, first compound 10 µM",90.6%
